Assay [1] deals with T1, P236L viral reverse transcriptase (Human immunodeficiency virus type 1 group M subtype B, UniProt P04585, P823L).
T1 construct: P236L viral reverse transcriptase is obtained by PNAS 90: 4713-4717 (1993); made in house
Nature of the assay: inhibition of viral reverse transcriptase (P236L), cell free assay. To be noted: IC50 (Table I, P236L), 30 minutes at 37° C. Type of assay: biochemical. The essentials: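 E. coli-expressed wild-type or P236L RT extracts incubated with inhibitor 30 min at 37 °C in Tris pH 8.3 with MgCl₂, NaCl, DTT, NP-40, 10 μM [35S]-dNTP, poly rC/rG template and oligo dG/dT primer. Incorporated label counted on DE81 paper; reported as % inhibition and/or IC50.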

For assay [2], the target named is T2, viral reverse transcriptase (Wild Type) (Human immunodeficiency virus type 1 group M subtype B, UniProt P04585).
T2 construct: Viral reverse transcriptase (Wild Type) is found in extracts from bacterial clones; made in house; host or cells: Escherichia coli
Kind of assay: inhibition of viral reverse transcriptase (Wild Type), cell free assay. Format: biochemical. From the text: The utility of the pyrimidine-thioalkyl and alkylether anti-AIDS compounds of Formula IA of this invention can be determined by their ability to inhibit viral reverse transcriptase, an enzyme essential for human immunodeficiency virus replication. This enzyme has characteristics which differentiate it from other known cellular polymerases and it is a unique enzyme which is not found in uninfected cells. Viral reverse transcriptase (Wild Type) is found in extracts from bacterial clones prepared according to the procedure described in AIDS Virus Reverse Transcriptase defined by high level expression in Escherichia coli, EMBO J. 6:3133-3137 (1987). P236L viral reverse transcriptase is obtained by PNAS 90: 4713-4717 (1993). Inhibition of this enzyme is determined in a cell free assay which measures the level of radioactive precursors incorporated into DNA. Extracts prepared according to the procedure of Science, 1125-1129 (1981) are incubated in a mixture of inhibitor, 20 mM dithiothreitol, 60 mM sodium chloride, 0.05% NP-40, 10 mM magnesium chloride, 50 mM Tris pH 8.3, 10 μM [^35 S]-labeled deoxynuleoside-5'-triphosphate, 10 μg/ml RNA template (poly rC or poly rG) and 5 μg/ml DNA primer (oligo dG or oligo dT) for 30 minutes at 37° C. Incorporation of radio-labeled percursor is determined by spotting aliquots of the reaction mixture on DE81 paper, washing the papers to remove unincorporated percursor, drying and determining counts. The results (IC50 means the concentration, in μM of drug, required to inhibit the reverse transcriptase activity (P236L and Wild Type) to the extent of 50%) of various assay(s) are combined and reported as % inhibition and/or IC50 (calculated) in Table I (P236L) and Table II (Wild Type).

[3] abbreviates: 30 minutes at 37° C., read-out: IC50 (Table II, Wild Type).

Structures are written as SMILES. “And” between values parts separate entries of the source, which are not always exact repeats. Equal values may be shown once. Read-outs that look alike come from different tables or passages of the source.

What is called IC50 is the midpoint of a concentration-inhibition curve. For orientation: inhibition means the share of the control response that was lost under treatment. High values mean a strong effect, low ones a weak effect. Consider `COC(=O)/C=C(\C)CSc1nc(N)cc(Cl)n1` [Example 208, (E)-4-[(4-Amino-6-chloro-2-pyrimidinyl)thio]-3-methyl-2-butenoic acid methyl ester], for which 1000 nM corresponded to half-maximal inhibition in assay [1] (IC50). This molecule registered an inhibition at 10 µM in assay [2] of 79%.

For `Cc1coc2cnc(C(C)Sc3nc(N)cc(Cl)n3)cc12` (centres unmarked) [Example 246, 4-Amino-6-chloro-2-(1-(3-methylfuro[2,3c]pyridine-5-yl)ethyl)thio-pyrimidine], the IC50 in assay [1] turned out to be 31 nM; in assay [2] (setting [3]) it was 24 nM.

`CCc1ccnc(C(C)Sc2nc(N)cc(Cl)n2)c1` (centres unmarked) [Example 216, 4-Amino-6-chloro-2-(1-(4-ethyl-2-pyridyl)ethyl)thio-pyrimidine]: the IC50 amounted to 30 nM in assay [1] and 27 nM in assay [2] (setting [3]).

`CCNC(=O)/C=C/CSc1nc(N)cc(Cl)n1` [Example 196, (E)-N-ethyl-4-[(4-amino-6-chloro-2-pyrimidinyl)thio]-2-butenamide] had a 50% inhibitory concentration (IC50) in assay [1] of 10000 nM. The inhibition at 50 µM in assay [2] was determined as 71%.

Turning to `Nc1cc(C(F)(F)F)nc(SCc2ccc3ccccc3c2)n1` [Example 270, 4-amino-6-trifluoromethyl-2-(2-naphthylmethyl)thio-pyrimidine], the IC50 was determined as 290 nM in assay [1] and 434 nM in assay [2] (setting [3]).

Turning to `CC(Sc1nc(N)cc(Cl)n1)c1cc2c(cn1)OCC2(C)C` (centres unmarked) [Example 248, 4-Amino-6-chloro-2-(1-(3,3-dimethyl-2,3-dihydrofuro[2,3c]pyridine-5-yl)ethyl)thio-pyrimidine], the IC50 in assay [1] came out at 18 nM; in assay [2] (setting [3]), 72 nM.

On to `CC(Sc1nc(N)cc(C(F)(F)F)n1)c1cc(C(C)(C)C)ccn1` (centres unmarked) [Example 269, 4-amino-6-trifluoromethyl-2-(1-(4-(1-dimethylethyl)-2-pyridyl)-ethyl)thio-pyrimidine], for which the IC50 came out at 200 nM in assay [1] and 441 nM in assay [2] (setting [3]).

`Cc1coc2c(Cl)nc(C(C)Sc3nc(N)cc(C(F)(F)F)n3)cc12` (centres unmarked) [Example 295, 4-Amino-2-(1-(7-chloro-3-methyl-furo[2,3c]pyridin-5-yl)ethylthio)-6-trifluoromethyl-pyrimidine]: the half-inhibitory concentration (IC50) in assay [1] amounted to 249 nM; in assay [2] (setting [3]) it was 212 nM.

On to `CC(C)c1ccnc(C(C)Sc2nc(N)cc(Cl)n2)c1` (centres unmarked) [Example 223, 4-Amino-6-chloro-2-(1-(4-(1-methylethyl)-2-pyridyl)ethyl)thio-pyrimidine], for which the results for the half-inhibitory concentration (IC50) in assay [1] and in assay [2] (setting [3]) were 68 nM and 60 nM, respectively.

`CC(C)(C)c1ccnc(CSc2nc(N)cc(C(F)(F)F)n2)c1` [Example 273, 4-amino-6-trifluoromethyl-2-((4-(1,1-dimethylethyl)2-pyridyl)methyl)-thio-pyrimidine]: in assay [1], the half-inhibitory concentration (IC50) came out at 100 nM. In assay [2], this molecule displayed an inhibition at 1 µM of 75%.

Turning to `CC(C)c1cncc(C(C)Sc2nc(N)cc(Cl)n2)c1` (centres unmarked) [Example 260, 4-amino-6-chloro-2-(1-(5-(1-methylethyl)-3-pyridyl)-ethyl)thio-pyrimidine], the IC50 in assay [1] amounted to 30 nM; in assay [2] (setting [3]), 70 nM.

As for `Cc1cc2cc(C(C)Sc3nc(N)cc(C(F)(F)F)n3)nc(Cl)c2o1` (centres unmarked) [Example 241, 4-Amino-6-trifluoromethyl-2-(1-(7-chloro-2-methylfuro[2,3c]pyridine-5-yl)ethyl)thio-pyrimidine], the IC50 in assay [1] stood at 334 nM; in assay [2] (setting [3]), 82 nM.

Consider `CC(Sc1nc(N)cc(Cl)n1)c1cc2c(C(F)(F)F)coc2c(Cl)n1` (centres unmarked) [Example 293], for which the IC50 in assay [1] is 190 nM; in assay [2] (setting [3]), 345 nM.

The molecule `CC(C)Oc1ccnc(C(C)Sc2nc(N)cc(Cl)n2)c1` (centres unmarked) [Example 263] showed an IC50 in assay [1] of 100 nM. In assay [2], this molecule had an inhibition at 1 µM of 86%.

Regarding `Cc1coc2cnc(C(C)Sc3nc(N)cc(C(F)(F)F)n3)cc12` (centres unmarked) [Example 296, 4-Amino-6-trifluoromethyl-2-(1-(3-methyl-furo[2,3c]pyridin-5-yl)ethylthio)-pyrimidine], the IC50 in assay [1] was 79 nM and 83 nM and 75 nM; in assay [2] (setting [3]), 54 nM and 111 nM.

Turning to `Cc1coc2cnc([C@H](C)Sc3nc(N)cc(Cl)n3)cc12` [Example 290, (S)-(-)-4-Amino-6-chloro-2-(1-(3-methylfuro[2,3c]pyridine-5-yl)ethyl)thio-pyrimidine], the IC50 in assay [1] is 14 nM; in assay [2] (setting [3]), 25 nM.

On to `CCC(C)c1ccnc(C(C)Sc2nc(N)cc(Cl)n2)c1` (centres unmarked) [Example 256, 4-amino-6-chloro-2-(1-(4-(1-methylpropyl)-2-pyridyl)-ethyl)thio-pyrimidine], for which the values for the IC50 in assay [1] and in assay [2] (setting [3]) were 100 nM and 93 nM, respectively.

In assay [1], `CN1CCN(C(=O)/C=C/CSc2nc(N)cc(Cl)n2)CC1` [Example 195, (E)-4-methyl-1-[4-[(4-amino-6-chloro-2-pyrimidinyl)thio]-1-oxo-2-butenyl]piperazine] came in with an IC50 of 50000 nM. The inhibition at 50 µM in assay [2] was 40%.

`CN(C(=O)/C=C/CSc1nc(N)cc(Cl)n1)c1ccccc1` [Example 200, (E)-N-methyl-N-phenyl-4-[(4-amino-6-chloro-2-pyrimidinyl)thio]-2-butenamide] came in with a 50% inhibitory concentration (IC50) in assay [1] of 1000 nM. Besides, in assay [2], at 10 µM the inhibition was 57%.

Turning to `CC(Sc1nc(N)cc(Cl)n1)c1cc2ccccc2cn1` (centres unmarked) [Example 230, 4-Amino-6-chloro-2-(1-(3-isoquinolyl)ethyl)thio-pyrimidine], the values for the IC50 in assay [1] and in assay [2] (setting [3]) were 39 nM and 19 nM, respectively.

On to `CCc1ccnc([C@H](C)Sc2nc(N)cc(Cl)n2)c1` [Example 292, (-)-4-Amino-6-chloro-2-(1-(4-ethyl-2-pyridyl)ethyl)thio-pyrimidine], for which the IC50 came to 17 nM in assay [1] and 7 nM in assay [2] (IC50 (Table II, Wild Type), 30 minutes at 37° C.).

In the case of `CC(Sc1nc(N)cc(Cl)n1)c1ccc(OCc2ccccc2)c(Cl)n1` (centres unmarked) [Example 303, 4-amino-6-chloro-2-(((5-benzyloxy-6-chloro)-2-pyridyl)-ethyl)thio-pyrimidine], the IC50 in assay [1] amounted to 5000 nM; in assay [2] (setting [3]), 50000 nM.

Turning to `CC(Sc1nc(N)cc(Cl)n1)c1cc2c(cn1)OCC2` (centres unmarked) [Example 247, 4-Amino-6-chloro-2-(1-(2,3-dihydrofuro[2,3c]pyridine-5-yl)ethyl)thio-pyrimidine], the results for the IC50 in assay [1] and in assay [2] (setting [3]) were 61 nM and 72 nM, respectively.

Regarding `CCC(CC)c1ccnc(C(C)Sc2nc(N)cc(Cl)n2)c1` (centres unmarked) [Example 261, 4-amino-6-chloro-2-(1-(4-(1-ethylpropyl)-2-pyridyl)-ethyl)thio-pyrimidine], the IC50 in assay [1] was 70 nM; in assay [2] (setting [3]), 59 nM.

For the molecule `Cc1coc2cnc([C@@H](C)Sc3nc(N)cc(Cl)n3)cc12` [Example 289, (R)-(+)-4-Amino-6-chloro-2-(1-(3-methylfuro[2,3c]pyridine-5-yl)ethyl)thio-pyrimidine], the IC50 worked out at 14 nM in assay [1] and 29 nM in assay [2] (setting [3]).

`CC(Sc1nc(N)cc(C(F)(F)F)n1)c1cc2ccoc2cn1` (centres unmarked) [Example 239, 4-Amino-6-trifluoromethyl-2-(1-(furo[2,3-c]pyridin-5-yl)ethyl)thio-pyrimidine]: the IC50 is 88 nM in assay [1] and 50 nM in assay [2] (setting [3]).

In turn, `N#Cc1cc(Cl)nc(SCc2ccc3ccccc3c2)n1` [Example 276, 6-chloro-2-(2-naphthylmethyl)thio-4-pyrimidine carbonitrile] displayed an IC50 in assay [1] of 50000 nM. In addition, the “IC50 (Table II, Wild Type)” value in assay [2] (30 minutes at 37° C.) is on record as “INACTIVE”.

On to `CC(Sc1nc(N)cc(Cl)n1)c1cc(C#N)ccn1` (centres unmarked) [Example 214, 4-Amino-6-chloro-2-(1-(4-cyano-2-pyridyl)ethyl)thio-pyrimidine], for which the IC50 in assay [1] worked out at 178 nM; in assay [2] (setting [3]) it was 487 nM.

The record behind these values is patent publication US6043248A, “Alpha-substituted pyrimidine-thioalkyl and alkylether compounds as inhibitors of viral reverse transcriptase” (priority 1997, dated 2000).
